Assay results as given in PMC10698177, “Discovery of type II polyketide synthase-like enzymes for the biosynthesis of cispentacin” (Nature Communications, 2023).

How the values were obtained:
Type in all cases: biochemical
AmcH [1] = molecular target: T1, AmcH (Streptomyces novoguineensis, UniProt A0A4Y5QVH7); experiment: LC-ESI-HRMS of acyl-AmcB; settings: 200 uM AmcB, 0.2 uM AmcH, 1 mM 2-OG, 5 mM ATP, 25 mM MgCl2, 50 mM Tris-HCl pH 8.0, 30 °C, 1 h
T1 construct: AmcH purified from Streptomyces albus G153; AmcB (holo form, with phosphopantetheine arm) from E. coli BL21(DE3), pET26b(+), is the acyl acceptor; with Acyl carrier protein AmcB
T1 sequence (A0A4Y5QVH7 1-460): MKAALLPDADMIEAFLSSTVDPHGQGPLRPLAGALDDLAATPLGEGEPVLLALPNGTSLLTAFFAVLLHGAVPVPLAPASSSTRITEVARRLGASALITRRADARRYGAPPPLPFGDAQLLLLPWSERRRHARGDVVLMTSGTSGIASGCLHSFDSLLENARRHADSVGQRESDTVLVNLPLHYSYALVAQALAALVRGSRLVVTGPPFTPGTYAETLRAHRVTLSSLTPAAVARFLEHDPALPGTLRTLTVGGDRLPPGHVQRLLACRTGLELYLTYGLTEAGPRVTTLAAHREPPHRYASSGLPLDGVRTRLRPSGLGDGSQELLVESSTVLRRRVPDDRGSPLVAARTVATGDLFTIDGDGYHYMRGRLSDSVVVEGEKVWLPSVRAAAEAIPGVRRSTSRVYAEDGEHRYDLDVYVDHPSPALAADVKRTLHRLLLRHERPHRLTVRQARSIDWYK

AmcH [2] = molecular target: T1, AmcH; experiment: HPLC of ATP consumption and AMP formation; settings: 500 uM AmcB, 1 uM AmcH, 1 mM 2-OG, 2 mM ATP, 25 mM MgCl2, pH 8.0, 30 °C
sFabI = molecular target: T2, sFabI (Streptomyces albidoflavus, UniProt D6BBL6); experiment: PPant ejection assay / LC-HRMS of 4-AmcB formation; settings: 1 mM NADH, 200 uM gel-filtered 3-AmcB, 8 uM enzyme, 20 mM Tris-HCl pH 8.0, 150 mM NaCl, 30 °C, 1 h
T2 construct: gene fabI; C-terminal His tag, pET26b(+), E. coli BL21(DE3)
T2 sequence (D6BBL6 1-259): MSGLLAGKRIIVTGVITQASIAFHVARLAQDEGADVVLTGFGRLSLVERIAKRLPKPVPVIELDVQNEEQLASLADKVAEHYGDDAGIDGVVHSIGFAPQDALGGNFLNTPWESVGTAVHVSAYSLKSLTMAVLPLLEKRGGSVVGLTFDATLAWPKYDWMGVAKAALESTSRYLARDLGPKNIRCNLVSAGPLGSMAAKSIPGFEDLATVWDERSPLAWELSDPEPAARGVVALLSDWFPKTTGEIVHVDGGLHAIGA

eFabI = molecular target: T3, eFabI (Escherichia coli, UniProt P0AEK4); experiment: PPant ejection assay / LC-HRMS of 4-AmcB formation; settings: 1 mM NADH, 200 uM gel-filtered 3-AmcB, 8 uM enzyme, 20 mM Tris-HCl pH 8.0, 150 mM NaCl, 30 °C, 1 h
T3 construct: gene fabI; C-terminal His tag, pET26b(+), E. coli BL21(DE3)
T3 sequence (P0AEK4 2-262): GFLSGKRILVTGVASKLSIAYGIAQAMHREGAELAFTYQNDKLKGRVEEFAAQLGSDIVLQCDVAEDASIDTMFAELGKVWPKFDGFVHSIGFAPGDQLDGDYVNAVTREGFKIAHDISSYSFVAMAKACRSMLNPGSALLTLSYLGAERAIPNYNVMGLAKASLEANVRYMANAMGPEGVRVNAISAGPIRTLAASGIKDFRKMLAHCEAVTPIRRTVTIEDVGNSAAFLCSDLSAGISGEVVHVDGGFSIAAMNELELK

## O=C(O)CCC(=O)C(=O)O [2-OG]
AmcH [1]
  LC-ESI-HRMS of acyl-AmcB: AmcH loads only 2-OG onto AmcB to form 2-oxoglutaryl-AmcB

## Nc1ncnc2c1ncn2[C@@H]1O[C@H](COP(=O)(O)OP(=O)(O)OP(=O)(O)O)[C@@H](O)[C@H]1O [ATP]
AmcH [2]
  HPLC of ATP consumption and AMP formation: consumption of ATP and the generation of AMP occurred in both AmcB- and 2-OG-dependent manners

## NC(=O)C1=CN([C@@H]2O[C@H](COP(=O)(O)OP(=O)(O)OC[C@H]3O[C@@H](n4cnc5c(N)ncnc54)[C@H](O)[C@@H]3O)[C@@H](O)[C@H]2O)C=CC1 [NADH]
sFabI
  PPant ejection assay / LC-HRMS of 4-AmcB formation: eFabI and sFabI specifically catalyze the reduction of 3-AmcB to yield 4-AmcB
eFabI
  PPant ejection assay / LC-HRMS of 4-AmcB formation: eFabI and sFabI specifically catalyze the reduction of 3-AmcB to yield 4-AmcB
